We go through 11 compounds from ChEMBL document CHEMBL1201862, “PubChem BioAssay data set” (2004).

The structures appear in SMILES notation.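 Growth conditions: 96-well plates. Treatment: test compound, 48 hours, 5 concentrations. Analysis: linear interpolation between bracketing concentrations; unreached endpoints set to highest concentration. GI50: concentration for 50% inhibition of growth.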 The source made the active and inactive calls. Rule as the data show it: active = GI50 up to about 1.1 µM and inactive = higher.

Test systems include LOX IMVI; SK-MEL-5; NCI-H460; EKVX; DMS-114; SNB-19; OVCAR-5; SF-268; RPMI-8226; HCT-116; DLD-1; SW-620; RXF 393; OVCAR-4; OVCAR-8; UO-31; Malme-3M; HOP-62; HOP-92.
Holding throughout (assay): growth of human tumour cells (NCI), 48 h

For `O=C(N/N=C/c1ccccc1O)c1cccc([N+](=O)[O-])c1`, the GI50 is 18.4 µM (inactive) in the test on LOX IMVI; 9.98 µM (inactive) in the test with SK-MEL-5; 4.68 µM (inactive) with NCI-H460; 21.1 µM (inactive) in the test with EKVX; 3.65 µM (inactive) with DMS-114; > 58.9 µM (inactive) with SNB-19. Besides, the GI50 with OVCAR-5 was 22.4 µM (inactive); with SF-268, 15.7 µM (inactive); in the test on RPMI-8226, 8.04 µM (inactive); with HCT-116, 22.5 µM (inactive); in the test on DLD-1, 45.7 µM (inactive); with SW-620 it was 4.54 µM (inactive). Further, the GI50 in the test with RXF 393 was 8.95 µM (inactive); with OVCAR-4, 50.5 µM (inactive); with OVCAR-8, 6.95 µM (inactive); with UO-31 it was 7.82 µM (inactive); in the test with Malme-3M, 30.8 µM (inactive).
Take `COC(=O)CCC(=O)CC1CC(=O)C2CCCN12` (stereo not given): the GI50 in the test with LOX IMVI, in the test on SK-MEL-5, in the test with NCI-H460, with EKVX, in the test on DMS-114 and in the test with SNB-19 was > 100 µM (inactive) in each case. Besides, the GI50 in the test on OVCAR-5, in the test with SF-268, in the test with RPMI-8226, with HCT-116, with DLD-1 and in the test on SW-620 was > 100 µM (inactive) each time. In addition, the GI50 in the test on RXF 393, in the test on OVCAR-4, with HOP-62, in the test on OVCAR-8, in the test with HOP-92 and with UO-31 was > 100 µM (inactive) throughout. In the test with Malme-3M, the GI50 was > 100 µM (inactive).
As to `Cc1c2ccncc2c(C)c2c1[nH]c1ccc(OC(C)C)cc12`, the GI50 with LOX IMVI was 1.18 µM (inactive); in the test on SK-MEL-5 it was 1.77 µM (inactive); in the test on NCI-H460 it was 1.03 µM (active); in the test with EKVX it was 1.4 µM (inactive); with DMS-114 it was 1.49 µM (inactive); in the test on SNB-19, 1.59 µM (inactive). Besides, the GI50 was 1.48 µM (inactive) in the test with OVCAR-5; 1.43 µM (inactive) in the test on SF-268; 1.99 µM (inactive) with RPMI-8226; 0.736 µM (active) in the test with HCT-116; 1.35 µM (inactive) with DLD-1; 0.547 µM (active) in the test on SW-620. Besides, the GI50 with RXF 393 is 1.33 µM (inactive); with OVCAR-4, 1.71 µM (inactive); in the test with HOP-62, 1.35 µM (inactive); in the test on OVCAR-8 it was 1.04 µM (active); in the test on HOP-92, 1.51 µM (inactive); with UO-31, 1.53 µM (inactive). In addition, the GI50 with Malme-3M was 1.58 µM (inactive).
As to `CN1N=C(Nc2ccccc2)Sc2c1cnn(-c1ccccc1)c2=O`, the GI50 in the test with LOX IMVI was 87.3 µM (inactive); in the test with NCI-H460, > 100 µM (inactive); in the test with EKVX it was > 100 µM (inactive); in the test with DMS-114, 30.4 µM (inactive); with SNB-19, 96.4 µM (inactive); in the test with RPMI-8226, 93.3 µM (inactive). The GI50 in the test on HCT-116 is > 100 µM (inactive); in the test on DLD-1, > 100 µM (inactive); with SW-620, > 100 µM (inactive); in the test on RXF 393, > 100 µM (inactive); in the test on OVCAR-4, 94.4 µM (inactive); with HOP-62 it was > 100 µM (inactive). Moreover, the GI50 in the test on OVCAR-8 was > 100 µM (inactive); with HOP-92 it was 6.62 µM (inactive); in the test on UO-31, 83.2 µM (inactive); in the test with Malme-3M, > 100 µM (inactive).
Turning to `CN(C)CC1CCCCCCCCCCCCC(CN(C)C)C1=O` (stereo not given), the GI50 in the test on LOX IMVI is 8.43 µM (inactive); with SK-MEL-5, 14.5 µM (inactive); with NCI-H460, 13.7 µM (inactive); in the test on EKVX, 22.6 µM (inactive); in the test with DMS-114, 16.9 µM (inactive); in the test with SNB-19, 17.5 µM (inactive). Moreover, the GI50 was 16.7 µM (inactive) in the test on OVCAR-5; 12.7 µM (inactive) in the test with SF-268; 4.54 µM (inactive) in the test with HCT-116; 15.6 µM (inactive) with DLD-1; 7.64 µM (inactive) in the test with SW-620; 11.2 µM (inactive) in the test on RXF 393. Moreover, the GI50 in the test with OVCAR-4 is 15.7 µM (inactive); in the test with HOP-62, 16.4 µM (inactive); with OVCAR-8, 10.3 µM (inactive); in the test on HOP-92 it was 13.2 µM (inactive); in the test with UO-31, 13.7 µM (inactive); in the test on Malme-3M, 15.7 µM (inactive).
As for `CSc1nc(NC2OCC(OC(C)=O)C(OC(C)=O)C2OC(C)=O)c(/N=C(\C)C(C)=O)c(=O)n1C` (stereo not given), the GI50 with LOX IMVI, with SK-MEL-5, in the test with NCI-H460, in the test on EKVX, with DMS-114 and with SNB-19 was > 100 µM (inactive) each time. Also, the GI50 in the test on OVCAR-5, with RPMI-8226, in the test on HCT-116, in the test with DLD-1, in the test with SW-620 and in the test on RXF 393 was > 100 µM (inactive) each time. Also, the GI50 with OVCAR-4, in the test with HOP-62, in the test on OVCAR-8, in the test with HOP-92, in the test with UO-31 and in the test with Malme-3M was > 100 µM (inactive) in each case.
For the compound `Cc1ccc(S(=O)(=O)NC(=O)C2(Br)S(=O)(=O)OCCOS2(=O)=O)cc1`, the GI50 in the test with LOX IMVI, in the test with SK-MEL-5, in the test on NCI-H460, with EKVX, in the test with DMS-114 and with SNB-19 was > 100 µM (inactive) throughout. The GI50 with OVCAR-5, with SF-268, in the test with RPMI-8226, with HCT-116, in the test on DLD-1 and in the test on RXF 393 was > 100 µM (inactive) in each case. For the same compound, the GI50 with OVCAR-4, in the test with HOP-62, with OVCAR-8, with HOP-92, in the test on UO-31 and with Malme-3M was > 100 µM (inactive) each time.
Consider `CCCN1C(=O)CNC(=O)c2[nH]cnc21`, for which the GI50 in the test with LOX IMVI, with SK-MEL-5, in the test with NCI-H460, in the test with EKVX, with DMS-114 and in the test on SNB-19 was > 100 µM (inactive) each time. For the same compound, the GI50 in the test on OVCAR-5, in the test with SF-268, in the test on RPMI-8226, in the test with HCT-116, with DLD-1 and in the test on SW-620 was > 100 µM (inactive) each time. Besides, the GI50 in the test on RXF 393, in the test on HOP-62, with OVCAR-8, in the test with HOP-92, in the test with UO-31 and with Malme-3M was > 100 µM (inactive) in each case.
With `C1=CC2CCC1CN2CCC1CNc2ccccc21` (stereo not given), the GI50 with LOX IMVI, with EKVX, with DMS-114, in the test with SNB-19, in the test with OVCAR-5 and with SF-268 was > 100 µM (inactive) each time. For the same compound, the GI50 with RPMI-8226 is > 100 µM (inactive); in the test on HCT-116 it was > 100 µM (inactive); in the test on DLD-1 it was > 100 µM (inactive); in the test on SW-620, > 100 µM (inactive); with RXF 393 it was 75.3 µM (inactive); in the test on HOP-62, > 100 µM (inactive). The GI50 with OVCAR-8 is > 100 µM (inactive); with HOP-92, > 100 µM (inactive); in the test with UO-31, 64.9 µM (inactive); in the test on Malme-3M, > 100 µM (inactive).
As to `C=CCn1cc(C(=O)NC(=O)NCCCCCOC(=O)CCCCCCCCCCC(=O)OCCCCCNC(=O)NC(=O)c2cn(CC=C)c(=O)n(C)c2=O)c(=O)n(C)c1=O`, the GI50 in the test with LOX IMVI, in the test on SK-MEL-5, in the test with NCI-H460, in the test on EKVX, with DMS-114 and with SNB-19 was > 100 µM (inactive) throughout. Moreover, the GI50 with OVCAR-5, with SF-268, with RPMI-8226, in the test on HCT-116, in the test with DLD-1 and with SW-620 was > 100 µM (inactive) each time. The GI50 in the test on RXF 393, in the test with HOP-62, in the test with OVCAR-8, in the test on HOP-92, in the test on UO-31 and with Malme-3M was > 100 µM (inactive) in each case.
With `Cn1cnc(S[C@H]2[C@H]3C(=O)C=C4S[C@H]5C[C@]42C2=C(N5)C(=O)c4[nH]cc5c4C2=[N+]3CC5)c1C[C@H](N)C(=O)O`, the GI50 in the test with LOX IMVI is 13.1 µM (inactive); in the test on SK-MEL-5, 13.4 µM (inactive); with NCI-H460 it was 27.5 µM (inactive); with EKVX it was 17.7 µM (inactive); in the test with DMS-114, 2.52 µM (inactive); in the test on SNB-19, 17.6 µM (inactive). For the same compound, the GI50 in the test with OVCAR-5 is 15.1 µM (inactive); in the test with SF-268, 12.1 µM (inactive); in the test with RPMI-8226, 16.7 µM (inactive); in the test with HCT-116 it was 3.7 µM (inactive); in the test with DLD-1, 17.2 µM (inactive); in the test on SW-620, 6.14 µM (inactive). The GI50 in the test on RXF 393 is 22.1 µM (inactive); with OVCAR-4, 17.1 µM (inactive); in the test on OVCAR-8 it was 13.6 µM (inactive); in the test on HOP-92, 18.9 µM (inactive); in the test with UO-31, 17.5 µM (inactive); in the test with Malme-3M it was 3.72 µM (inactive).
